In PubChem BioAssay AID180 (DTP/NCI, 2004):
Values joined by “and” are separate entries in the source; they are usually repeats but may differ in a detail not shown here. Equal values may be shown once.

Tested on: BDF1 mice, Adenocarcinoma 755 s.c., tumor weight T/C
Experiment: NCI In Vivo Anticancer Drug Screen. Data for tumor model Adenocarcinoma 755 (subcutaneous) in B6D2F1 (BDF1) mice
Conditions: endpoint: mean tumor weight, schedule: Q01DX011 (ip), higher = larger tumour
Method in brief: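 Compound activity was tested in mice carrying transplanted tumors. Survival or tumor size was measured, and each value is the treated-group measurement divided by that of the vehicle-treated control group (T/C).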

[1] = dose: 30.0 mg/kg/injection, vehicle: carboxymethylcellulose (CMC)
[2] = dose: 120.0 mg/kg/injection, vehicle: carboxymethylcellulose (CMC)
[3] = dose: 240.0 mg/kg/injection, vehicle: carboxymethylcellulose (CMC)
[4] = dose: 75.0 mg/kg/injection, vehicle: methylcellulose (MC)
[5] = dose: 25.0 mg/kg/injection, vehicle: carboxymethylcellulose (CMC)
[6] = dose: 60.0 mg/kg/injection, vehicle: carboxymethylcellulose (CMC)

SMILES: CO[C@H](C(=O)[C@@H](O)[C@@H](C)O)[C@@H]1Cc2cc3cc(OC4CC(OC5CC(O)C(O)C(C)O5)C(O)C(C)O4)c(C)c(O)c3c(O)c2C(=O)[C@H]1OC1CC(OC2CC(OC3CC(C)(O)C(O)C(C)O3)C(O)C(C)O2)C(O)C(C)O1 (stereo partly specified)
- T/C (dose: 0.25 mg/kg/injection, vehicle: saline): 59 % of control
- T/C (dose: 0.25 mg/kg/injection, vehicle: water): 72 % of control
- T/C (dose: 0.5 mg/kg/injection, vehicle: saline): 57 % of control
- T/C (dose: 0.75 mg/kg/injection, vehicle: water): 16 % of control
- T/C (dose: 1.0 mg/kg/injection, vehicle: saline): 11 % of control

SMILES: Cc1cnc(SCc2ccccc2)[nH]c1=O
- T/C (dose: 15.0 mg/kg/injection, vehicle: methylcellulose (MC)): 103 % of control
- T/C (dose: 31.0 mg/kg/injection, vehicle: methylcellulose (MC)): 104 % of control
- T/C (dose: 125.0 mg/kg/injection, vehicle: methylcellulose (MC)): 92 % of control
- T/C (dose: 250.0 mg/kg/injection, vehicle: methylcellulose (MC)): 77 % of control

SMILES: O=c1cc2[nH]c(O)cn2c(=O)[nH]1
- T/C [1]: 95 % of control and 73 % of control
- T/C [2]: 47 % of control
- T/C [3]: 64 % of control

SMILES: CCSc1ncnc2nc[nH]c12
- T/C (dose: 2.5 mg/kg/injection, vehicle: carboxymethylcellulose (CMC)): 40 % of control
- T/C (dose: 100.0 mg/kg/injection, vehicle: carboxymethylcellulose (CMC)): 1 % of control

SMILES: O=CN(O)CC(=O)O
- T/C (dose: 62.5 mg/kg/injection, vehicle: carboxymethylcellulose (CMC)): 98 % of control
- T/C (dose: 125.0 mg/kg/injection, vehicle: carboxymethylcellulose (CMC)): 86 % of control
- T/C (dose: 250.0 mg/kg/injection, vehicle: carboxymethylcellulose (CMC)): 85 % of control

SMILES: O=C(N[C@H](CO)[C@H](O)c1ccc([N+](=O)[O-])cc1)C(Cl)Cl
- T/C (dose: 71.73 mg/kg/injection, vehicle: carboxymethylcellulose (CMC)): 88 % of control
- T/C (dose: 73.63 mg/kg/injection, vehicle: carboxymethylcellulose (CMC)): 103 % of control and 106 % of control
- T/C (dose: 95.85 mg/kg/injection, vehicle: carboxymethylcellulose (CMC)): 95 % of control
- T/C (dose: 143.47 mg/kg/injection, vehicle: carboxymethylcellulose (CMC)): 104 % of control
- T/C (dose: 147.25 mg/kg/injection, vehicle: carboxymethylcellulose (CMC)): 71 % of control
- T/C (dose: 187.5 mg/kg/injection, vehicle: methylcellulose (MC)): 70 % of control
- T/C (dose: 191.7 mg/kg/injection, vehicle: carboxymethylcellulose (CMC)): 156 % of control
- T/C (dose: 286.95 mg/kg/injection, vehicle: carboxymethylcellulose (CMC)): 115 % of control
- T/C (dose: 294.5 mg/kg/injection, vehicle: carboxymethylcellulose (CMC)): 65 % of control
- T/C (dose: 300.0 mg/kg/injection, vehicle: carboxymethylcellulose (CMC)): 104 % of control
- T/C (dose: 375.0 mg/kg/injection, vehicle: methylcellulose (MC)): 62 % of control
- T/C (dose: 500.0 mg/kg/injection, vehicle: carboxymethylcellulose (CMC)): 69 % of control
- T/C (dose: 750.0 mg/kg/injection, vehicle: methylcellulose (MC)): 99 % of control

SMILES: C=C(C)CSc1ncnc2nc[nH]c12
- T/C (dose: 1.5 mg/kg/injection, vehicle: other): 82 % of control
- T/C (dose: 3.0 mg/kg/injection, vehicle: other): 78 % of control
- T/C (dose: 7.0 mg/kg/injection, vehicle: other): 22 % of control
- T/C (dose: 15.0 mg/kg/injection, vehicle: other): 5 % of control
- T/C (dose: 30.0 mg/kg/injection, vehicle: other): 5 % of control and 14 % of control
- T/C (dose: 60.0 mg/kg/injection, vehicle: other): 2 % of control
- T/C (dose: 120.0 mg/kg/injection, vehicle: other): 2 % of control

SMILES: CC(c1ccccc1)c1nc2c([nH]1)c(=O)n(C)c(=O)n2C (stereo unspecified)
- T/C (dose: 40.0 mg/kg/injection, vehicle: methylcellulose (MC)): 99 % of control
- T/C [4]: 86 % of control
- T/C (dose: 150.0 mg/kg/injection, vehicle: methylcellulose (MC)): 72 % of control

SMILES: CN(C)[C@@H]1C(=O)C(C(=O)NCNc2nc(=S)c3[nH]cnc3[nH]2)=C(O)[C@@]2(O)C(=O)C3=C(O)c4c(O)cccc4[C@@](C)(O)[C@H]3C[C@@H]12
- T/C (dose: 4.0 mg/kg/injection, vehicle: carboxymethylcellulose (CMC)): 52 % of control
- T/C (dose: 8.0 mg/kg/injection, vehicle: carboxymethylcellulose (CMC)): 26 % of control
- T/C (dose: 15.0 mg/kg/injection, vehicle: carboxymethylcellulose (CMC)): 2 % of control
- T/C [1]: 1 % of control
- T/C (dose: 50.0 mg/kg/injection, vehicle: carboxymethylcellulose (CMC)): 1 % of control

SMILES: OCCN1CCN(CC/C=C2/c3ccccc3Sc3ccc(Cl)cc32)CC1
- T/C (dose: 2.5 mg/kg/injection, vehicle: methylcellulose (MC)): 90 % of control and 88 % of control
- T/C (dose: 5.0 mg/kg/injection, vehicle: methylcellulose (MC)): 40 % of control and 42 % of control
- T/C (dose: 10.0 mg/kg/injection, vehicle: methylcellulose (MC)): 32 % of control
- T/C (dose: 20.0 mg/kg/injection, vehicle: methylcellulose (MC)): 17 % of control

SMILES: Nc1nc(SCc2ccccn2)c2[nH]cnc2n1
- T/C (dose: 0.78 mg/kg/injection, vehicle: methylcellulose (MC)): 63 % of control
- T/C (dose: 1.56 mg/kg/injection, vehicle: methylcellulose (MC)): 14 % of control
- T/C (dose: 3.12 mg/kg/injection, vehicle: methylcellulose (MC)): 3 % of control
- T/C (dose: 6.25 mg/kg/injection, vehicle: methylcellulose (MC)): 2 % of control

SMILES: CCNc1ncnc2c1cnn2C1CCCO1 (stereo unspecified)
- T/C (dose: 3.1 mg/kg/injection, vehicle: methylcellulose (MC)): 61 % of control
- T/C (dose: 6.2 mg/kg/injection, vehicle: methylcellulose (MC)): 39 % of control
- T/C (dose: 12.5 mg/kg/injection, vehicle: methylcellulose (MC)): 3 % of control

SMILES: Nc1nc2c(ncn2C2CCCC2)c(=O)[nH]1
- T/C [5]: 88 % of control
- T/C (dose: 75.0 mg/kg/injection, vehicle: carboxymethylcellulose (CMC)): 63 % of control
- T/C (dose: 225.0 mg/kg/injection, vehicle: carboxymethylcellulose (CMC)): 59 % of control

SMILES: CC1CC(C)(O)CC(C(O)CC2CC(=O)NC(=O)C2)C1=O (stereo unspecified)
- T/C (dose: 0.05 mg/kg/injection, vehicle: methylcellulose (MC)): 71 % of control
- T/C (dose: 0.1 mg/kg/injection, vehicle: alkali diluted with saline): 62 % of control
- T/C (dose: 0.1 mg/kg/injection, vehicle: methylcellulose (MC)): 44 % of control
- T/C (dose: 0.2 mg/kg/injection, vehicle: alkali diluted with saline): 17 % of control
- T/C (dose: 0.2 mg/kg/injection, vehicle: methylcellulose (MC)): 32 % of control

SMILES: Cc1ccc2ccccc2c1CSc1nc(N)nc2c1ncn2CC(C)C
- T/C (dose: 25.0 mg/kg/injection, vehicle: methylcellulose (MC)): 115 % of control
- T/C [4]: 80 % of control
- T/C (dose: 225.0 mg/kg/injection, vehicle: methylcellulose (MC)): 97 % of control

SMILES: CC(=O)OCC1OC(n2c(Br)nc3c(N)ncnc32)C(OC(C)=O)C1OC(C)=O (stereo unspecified)
- T/C [1]: 88 % of control
- T/C [6]: 88 % of control
- T/C [2]: 104 % of control
- T/C [3]: 113 % of control

SMILES: NNc1ncnc2nc[nH]c12
- T/C [5]: 68 % of control
- T/C (dose: 37.5 mg/kg/injection, vehicle: carboxymethylcellulose (CMC)): 57 % of control

SMILES: O=C(OCC1OC(n2cnc3c(=O)[nH]c(=O)[nH]c32)C(OC(=O)c2ccccc2)C1OC(=O)c1ccccc1)c1ccccc1 (stereo unspecified)
- T/C [1]: 105 % of control
- T/C [6]: 78 % of control
- T/C [3]: 59 % of control
